In test [1] the test system is C57BL6 mouse model fed HFD or HFHC diet. Put plainly: Efficacy of PKCβ inhibitors on diet-induced obesity and hepatic steatosis in C57BL6 mice. The class given is in vivo. The settings on record: for liver TG levels: diet-fed mice (FIGS. 12H, 12I); for weight gain, intraperitoneal administration / weight gain, oral administration: mice on high fat diet; for weight gain, intraperitoneal administration: i.p. (FIG. 12C); for weight gain, oral administration: oral gavage (FIG. 12D). As to the method:
FIG. 12E compares food intake in mice fed HFD for and the indicated PKCb inhibitor was administered by i.p. FIG. 12F compares food intake in mice fed HFD and the indicated PKCb inhibitor was administered orally by gavage.
To test and compare therapeutic efficacy of these inhibitors, the following experiment was set up in a C57BL6 mouse model (20 animals per study). C57BL6 mice (7 week old male mice) were fed either HFD or HFHC diet and were either untreated or treated on the same day with an indicated PKCb inhibitor. The PKCb inhibitor was administered to these mice either by i.p. or oral gavage.
The inhibitors were administered by i.p. (FIG. 12C) or gavage (FIG. 12D).

Test [2] concerns the target Recombinant PKCβ (Homo sapiens, UniProt P05771). Put plainly: PKCb assay: phosphorylation of Histone H3 (Ser10) by recombinant PKCβ, immunoblot, no lipid activator. The note with it: basal PKCb, lipid activator not included; P-Ser10-Histone H3 by immunoblotting, 30° C., 6 minutes. The class given is biochemical. The procedure: Recombinant PKCβ (11ng) was mixed with purified Histone H3 (20 ng) and incubated at 30° C. for 6 minutes and phosphorylated Histone H3 (P^ser10-Histone H3) assessed by immunoblotting using specific antibodies (FIG. 11). Lipid activator was not included our assay because we were interested in finding chemicals inhibiting PKCb in its basal state.
(In general: A western blot detects proteins with antibodies after separation by electrophoresis.)

The test system of test [3] is PKCβ activation of SREBP-1c. Put plainly: SREBP-1c transactivation, Gal4-luciferase reporter with constitutively active PKCβ in HepG2 cells. The class given is cell-based, human. The settings on record: LY333,531 5 μM, PD98059 20 μM, GSK690693 1 μM. As to the method: (Gal4)5-luciferase reporter plasmid (0.6 μg) was co-transfected with a plasmid encoding either Gal4-DNA binding region (Gal4-DBD) or activation domain of SREBP-1 c linked to Gal4-DNA binding domain (Gal4-DBD-SREBP-1AD) (0.3 μg) (23) and pCMV-8-galactosidase (0.1 μg), along with constitutively active PKCβ cDNA (0.1 μg), in human hepatoma HepG2 cells in the absence or presence of LY333,531 (5 μM), PD98059 (20 μM) or GSK690693 (1 μM). Fold induction represens luciferase activity on PKCβ transfection relative to basal expression level in the absence of PKCβ expression vector (taken as 1). Luciferase activity was normalized to β-galactosidase activity.
To determine whether PKCβ deficiency affected the activation of hepatic SREBP-1c, a plasmid was used in which activation domain of SREBP-1c is fused to the Gal4-DBD and evaluated the activation of a Gal4-responsive reporter plasmid by overexpressed PKCβ in the absence or presence of indicated inhibitor.
Background: Reporter assays use an easily measured gene product as a stand-in for the process of interest.

“Also recorded” adds a separate entry of the source. Counter-ions that a name gives are not always drawn.

Sequence of Recombinant PKCβ (P05771 whole entry, species assumed): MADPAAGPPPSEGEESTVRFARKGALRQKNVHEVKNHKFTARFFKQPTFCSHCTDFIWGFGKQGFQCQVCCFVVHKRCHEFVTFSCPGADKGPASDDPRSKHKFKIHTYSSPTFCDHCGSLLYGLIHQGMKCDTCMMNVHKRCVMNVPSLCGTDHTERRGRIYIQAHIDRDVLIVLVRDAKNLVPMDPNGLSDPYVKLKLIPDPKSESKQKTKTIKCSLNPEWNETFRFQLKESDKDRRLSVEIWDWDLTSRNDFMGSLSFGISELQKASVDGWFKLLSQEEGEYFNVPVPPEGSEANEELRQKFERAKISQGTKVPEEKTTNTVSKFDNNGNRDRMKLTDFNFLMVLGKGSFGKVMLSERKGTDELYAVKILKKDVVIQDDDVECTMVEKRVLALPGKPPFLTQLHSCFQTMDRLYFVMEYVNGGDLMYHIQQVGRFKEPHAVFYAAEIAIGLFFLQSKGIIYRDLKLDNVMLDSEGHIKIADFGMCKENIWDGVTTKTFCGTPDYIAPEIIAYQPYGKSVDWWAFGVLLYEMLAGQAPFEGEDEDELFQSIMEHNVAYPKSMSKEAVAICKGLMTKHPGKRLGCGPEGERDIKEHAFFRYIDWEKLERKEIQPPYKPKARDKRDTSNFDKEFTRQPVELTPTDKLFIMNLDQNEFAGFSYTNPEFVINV

Broadly, the IC50 is the concentration at which inhibition is half-maximal. Consider `N#CCCCCCn1cc(C2=C(c3cn(CCCCCC#N)c4ccccc34)C(=O)NC2=O)c2ccccc21` [INST3399], for which, in test [1], the “liver TG levels” value is listed as “reduces liver TG levels”; the “weight gain, intraperitoneal administration” value is “reduction in weight gain”; the “weight gain, oral administration” value is on record as “caused an increase in weight gain; also recorded: greater weight gain relative to LY333531”. Also, the IC50 in test [2] stood at 50 nM.

As for `Cn1cc(-c2c(-c3c[nH]c4ccccc34)[nH][nH]c2=O)c2ccccc21` [INST5660], the “liver TG levels” value in test [1] is listed as “reducing diet-induced liver triglyceride level”. In test [1] (mice (FIG. 12G)), the diet-induced obesity result was “reducing diet-induced obesity”. Besides, in test [2], the IC50 came to 10 nM.

With `CN(C)C[C@@H]1CCn2cc(c3ccccc32)C2=C(C(=O)NC2=O)c2cn(c3ccccc23)CCO1` [LY333531, Ruboxistaurin hydrochloride, reference compound], in test [1], the “weight gain, intraperitoneal administration” value is “reduction in weight gain” and the “weight gain, oral administration” value is listed as “caused an increase in weight gain”. Moreover, in test [3], the “activation of SREBP-1c plasmid by overexpressed PKCβ in presence of inhibitor” value is reported as “this activation was blocked”.

(Values after US20230203017A1, “Protein Kinase C Beta Inhibitors and Uses Thereof” (priority 2021, published 2023).)
